Legend:
[1] = test system: male Slc:ddY mice; experiment: Test of anti-fatigue effect and physical endurance-enhancing effect (forced swimming with weight); type: in vivo, mouse; conditions: weight 8.5% of body weight
Excerpt: The following method can determine whether the functional food, or anti-fatigue agent and/or physical endurance enhancer, which contains the composition of the present invention, has an anti-fatigue effect or not and physical endurance-enhancing effect or not. That is, the effect of the present invention can be determined as follows: after preliminarily feeding, attaching a weight, which is equivalent to 8.5% of the body weight of each mouse, to each mouse in a group subjected to forced oral administration with an anti-fatigue agent containing the composition of the present invention (administered group) and to each mouse in a group administered with no agent (non-administration group) three weeks after administration; forcing the mice to swim; measuring a time until the head (nose) of each mouse completely sinks in water for 7 seconds due to distress; and comparing the results between the administered group and the non-administration group.
Six-week-old male Slc:ddY mice (Charles river laboratories Japan, Inc.) were preliminarily fed for 7 days and divided into four groups each including 10 mice.
The groups include: the group administered with water (control); the group administered with oxidized coenzyme Q10 at 50 mg/kg/day (Comparative Example 1, group administered with only CoQ10); the group administered with phosphatidylinositol at 100 mg/kg/day (Comparative Example 2, group administered with only phosphatidylinositol); and the group administered with oxidized coenzyme Q10 at 50 mg/kg/day and phosphatidylinositol at 100 mg/kg/day at the same time (Test Example, group administered with CoQ10+phosphatidylinositol), and forced oral administration was performed under the above-mentioned administration conditions five days a week. Three weeks after the administration, a weight was attached to each mouse (the weight is 8.5% of the body weight of the mouse), and the mouse was forced to swim. Then, a time until the head (nose) of the mouse completely sank for 7 seconds due to distress was measured. Note that, the oxidized coenzyme Q10 and phosphatidylinositol in Test Example were simultaneously administered.

[2] = Coenzyme Q10 concentration in blood after forced oral administration (HPLC of plasma); type: in vivo, rat; conditions: rats; for Average value of total CoQ10 concentration in blood: group = 1 week pre-administration
Protocol: Seven-week-old male Slc:SD rats were preliminarily fed for 7 days, and forced oral administration (repeated oral administration) was performed for 4 rats with phosphatidylinositol at 100 mg/kg/day for 1 week. Then, forced oral administration was performed with phosphatidylinositol at 100 mg/kg/day and oxidized coenzyme Q10 at 100 mg/kg/day at the same time (PI-administered group). 0, 2, 4, and 6 hours after the forced oral administration with both phosphatidylinositol and coenzyme Q10, the whole blood was collected from the postcaval vein using heparinized injection needles and syringes under diethyl ether anesthesia. Collected blood was immediately centrifuged (4° C., 3,000 rpm, 10 minutes) to separate plasma. The separated plasma samples were used for an analysis of coenzyme Q10 by HPLC. As comparative examples, the above-mentioned procedures were performed for the group which was subjected to forced oral administration (repeated oral administration) with soybean lecithin at 500 mg/kg/day (100 mg/kg/day in terms of phosphatidylinositol) instead of phosphatidylinositol for 1 week and then to forced oral administration with both phosphatidylinositol at 100 mg/kg/day and oxidized coenzyme Q10 at 100 mg/kg/day at the same time (soybean lecithin-administered group), and the group which was subjected to forced oral administration with both phosphatidylinositol at 100 mg/kg/day and oxidized coenzyme Q10 at 100 mg/kg/day simultaneously without preliminary administration of phosphatidylinositol (PI non-administration group).

[3] = Week 3, forced oral administration five days a week

Row | Average value of total CoQ10 concentration in blood ([2]; 0 hr after oral PI 100 mg/kg + oxidized CoQ10 100 mg/kg) [nM] | Average value of total CoQ10 concentration in blood ([2]; 2 hr after oral PI 100 mg/kg + oxidized CoQ10 100 mg/kg) | Average value of total CoQ10 concentration in blood ([2]; 4 hr after oral PI 100 mg/kg + oxidized CoQ10 100 mg/kg) | Average value of total CoQ10 concentration in blood ([2]; 6 hr after oral PI 100 mg/kg + oxidized CoQ10 100 mg/kg) [nM] | coenzyme Q10 concentrations in blood compared with the PI non-administration group ([2]; 1 week pre-administration) | Compound | Swimming time (average) ([1]; Week 0, 10 mice per group) [s] | Swimming time (average) [1, 3] [s]
1 | – | – | – | – | – | COC1=C(OC)C(=O)C(C/C=C(\C)CC/C=C(\C)CC/C=C(\C)CC/C=C(\C)CC/C=C(\C)CC/C=C(\C)CC/C=C(\C)CC/C=C(\C)CC/C=C(\C)CCC=C(C)C)=C(C)C1=O [CoQ10, oxidized coenzyme Q10, reference compound] | 214 | 358
2 | 70 | 1,983 nM | 1,927 nM | 686 | higher | phosphatidylinositol | 212 | 333
